The results in this text go back to US12103932B2, “Process for preparing substituted imidazo[4,5-c]pyrazoles” (Imam Abdulrahman Bin Faisal University, priority 2021, dated 2024).

Assay in all cases: Paper disk diffusion antibacterial test
Format in all cases: cell-based
For orientation: In agar diffusion tests the substance spreads into inoculated agar from a disc or well.

The subject of experiment [1] is Staphylococcus aureus ATCC 29213. How it is done: (§1) In Vitro antimicrobial activity was evaluated using both gram-positive and gram-negative bacterial strains. The results reproduced here are exemplary and may include other microorganisms such as Escherichia coli, Listeria monocytogenes, Lactobacillus, yeast, vancomycin-resistant Enterococcus, molds, and spores. The in vitro antibacterial activity was evaluated for. gram-positive bacteria (Staphylococcus aureus ATCC 29213 and Staphylococcus epidermidis ATCC 12228) and gram-negative bacteria (Pseudomonas aeruginosa ATCC 27853) obtained from King Fahd Hospital, AlKhobar, Saudi Arabia.
(§2) Antimicrobial activity of three imidazopyrazole derivatives (1), (2) and (3) were evaluated qualitatively by paper disk diffusion method [CLSI.; Approved Standard, 11th ed.; CLSI document M02-A11; Clinical and Laboratory Standards Institute: Wayne, PA, USA, 2012, incorporated herein by reference in its entirety]. The three chemical materials i.e. compounds (1), (2) and (3) were prepared in different concentrations as follows: 0.01, 0.02, 0.03, 0.05, and 0.1 g/mL in dimethyl sulfoxide (DMSO) and tested directly. Paper discs measured 6 mm in diameter were soaked separately with 100 μL of the chemical materials and were left to dry. Bacterial inoculums were prepared from previous cultures in Muller-Hinton broth. The bacterial cell suspension turbidity was adjusted to a 0.5 McFarland standard, which represented approximately 1-2×10^8 colony-forming units (CFU)/mL using a Biomerieux DensiCHEK plus meter device (Missouri, MO, USA). Bacterial inoculums at 0.5 mL were transferred to petri plates under sterilized conditions. Melted Muller-Hinton agar at approximately 50° C. was poured over the inoculums, and to ensure even distribution of the inoculums, the plates were rotated neatly, then cultures were left to harden for 5 min. Then, previously prepared paper discs, saturated with chemicals, were transferred, using sterilized forceps, to the surface of petri plates that contained the bacterial cultures. Gentamicin (CN10 μg), aminoglycosides antibiotic was used as the positive control and DMSO was used as the negative control. The petri plates were placed in the refrigerator (General Electric, Medford, MA, USA) to allow diffusion of the chemicals into the agar for an hour. Then the petri plates were incubated at 37° C. for 24 h. After the incubation period ended, the area of inhibition around the discs was measured with a ruler. Three replicants were made to ensure the accuracy of the experiment.

In experiment [2] the test system is Staphylococcus epidermidis ATCC 12228. The protocol: as §1, §2
Experiment [3] relates to Pseudomonas aeruginosa ATCC 27853. How it is done:
as §1, §2

[4] abbreviates: 0.05 g/mL in DMSO, 6 mm paper disc, 37° C. 24 h.
Where [5] appears, read: 0.1 g/mL in DMSO, 6 mm paper disc, 37° C. 24 h.

Consider `CC1=NN(c2ccccc2)C2=NC(=S)NC12` (stereo not shown) [(1), 3-Methyl-1-Phenyl-3a,4-Dihydro Imidazo(4,5-c) Pyrazole-5(1H)-Thione], for which the “zone of inhibition (mm) means ± SD” value in experiment [1] (setting [4]) is on record as 7.7 ± 0.6 mm; in experiment [1] (setting [5]), 9.0 ± 1.0 mm; in experiment [2] (setting [4]), 8.3 ± 0.6 mm; in experiment [2] (setting [5]), 8.3 ± 0. mm; in experiment [3] (setting [4]), 10.0 ± 1.0 mm; in experiment [3] (setting [5]) it was 11.0 ± 1.0 mm.
Regarding `CC1=NN(c2ccccc2)C2=NC(NC(N)=S)=NC12` (stereo not shown) [(2), 1-(3-Methyl-1-Phenyl-1,3a-Dihydroimidazo[4,5-c] Pyrazol-5-yl) Thiourea], the “zone of inhibition (mm) means ± SD” value in experiment [1] (setting [4]) was found to be 18.0 ± 0.0 mm; in experiment [1] (setting [5]), 18.7 ± 0.6 mm; in experiment [2] (setting [4]), 8.3 ± 0.6 mm; in experiment [2] (setting [5]), 9.3 ± 0.6 mm; in experiment [3] (setting [4]), 7.7 ± 0.6 mm; in experiment [3] (setting [5]), 8.3 ± 0.6 mm. Further, in experiment [1] (at the concentrations 0.05 g/mL and 0.01 g/mL, gentamicin CN10 μg), the “area of inhibition zone compared with positive control gentamicin” value is recorded as “equal to gentamicin”.
Consider `CCOC(=O)CSC1=NC2C(C)=NN(c3ccccc3)C2=N1` (stereo not shown) [(3), Ethyl 2-((3-Methyl-1-Phenyl-1,3adihydroimidazo[4,5-c] Pyrazol-5-yl)thio) Acetate], for which the “zone of inhibition (mm) means ± SD” value is on record as 7.3 ± 0.6 mm in experiment [1] (setting [4]); 8.7 ± 0.6 mm in experiment [1] (setting [5]); 7.3 ± 0.6 mm in experiment [2] (setting [4]); 8.7 ± 0.6 mm in experiment [2] (setting [5]); 7.3 ± 0.6 mm in experiment [3] (setting [4]); 7.3 ± 0.6 mm in experiment [3] (setting [5]).
As for Gentamicin [reference compound], the “zone of inhibition (mm) means ± SD” value in experiment [1] (positive control, CN10 μg disc) was found to be 18.7 ± 1.5 mm; in experiment [2] (positive control, CN10 μg disc), 21.3 ± 1.2 mm; in experiment [3] (positive control, CN10 μg disc), 20.7 ± 1.2 mm.
